Data on two molecules can be found in patent US11446285B2, “Methods for treating systemic lupus erythematosus” (University of Southern California, priority 2017, dated 2022).

Holding throughout (type): in vivo
The subject of test [1] is MRL-lpr mice. The experiment in a line: Face rash scores in MRL-lpr mouse model of SLE. Particulars: scored 19, 25, 30, 37 and 40 days after start of treatment, A(1-7) 0.5 mg/kg, Compound 7 2 mg/kg s.c. daily, compared to saline treated MRL-lpr mice. The source says: Face rash scores. Mice were monitored daily for skin lesions. Scores of lesions of the face were taken 19, 25, 30, 37 and 40 days after the start of treatment; pictures were taken at different time points throughout the study. Face rash scores were based on location and extent of inflammation and hair loss as follows: 0, no noticeable irritation; 1, little redness, no hair loss or inflammation; 2, minimal rash, little hair loss or inflammation; 3, moderate rash, increased hair loss, light inflammation; 4, pronounced rash, near total hair loss and obvious inflammation; 5, rash is spreading up to the top of the face; 6, obvious wound above nose.
(§1) Our study uses the MRL/MpJ-Fas^lpr/J (MRL-lpr) as a mouse model of SLE and MRL/MpJ mice as controls (control mice do develop SLE but at a much later stage in life). These mice were broken into 4 groups that received once daily subcutaneous injections of treatment starting at 8 weeks of age for 6 weeks: a MRL/MpJ group (n=5) dosed daily with saline, an MRL-lpr group (n=8) dosed with saline, an MRL/MpJ group (n=8) dosed with 0.5 mg/kg of A(1-7), and an MRL/MpJ group (n=8) dosed with 2 mg/kg of Compound 7 (in an aqueous Tween 20 formulation). Throughout the study, the mice were monitored for proteinuria and face lesions. At necropsy, the kidneys and peripheral blood were harvested. The kidneys sections were stained with hematoxylin & eosin (H&E) for evaluation of glomerular health. Blood samples were processed and the plasma was stored at −20° C. for measurement of anti-dsDNA antibodies.

The subject of test [2] is MRL-lpr mice. The experiment in a line: Protein urine scores in MRL-lpr mouse model of SLE. Particulars: once daily s.c. for 6 weeks from 8 weeks of age, A(1-7) 0.5 mg/kg, Compound 7 2 mg/kg, compared to saline treated MRL-lpr mice. How it is done: Protein urine scores. At necropsy a final measurement or proteinuria was done using Urinalysis Reagent Strips (Mountainside Medical Equipment; Marcy, N.Y.). Protein scores signify the level of protein measured in the urine of each mouse and are scored as; 1-15 mg/dl protein, 2-30 mg/dl protein, 3-100 mg/dl protein and 4-300 mg/dl protein.
as §1

In test [3] the test system is MRL-lpr mice. The experiment in a line: Anti-dsDNA IgG titers in plasma (ELISA) in MRL-lpr mouse model of SLE. The settings on record: plasma at necropsy after 6 weeks of treatment, A(1-7) 0.5 mg/kg, Compound 7 2 mg/kg s.c. daily, compared to saline treated MRL-lpr mice. As for the experimental part:
Anti-dsDNA IgG titers. Peripheral blood was collected at necropsy by cardiac puncture with a 1 mL syringe fitted with a 22G needle, transferred into 2 ml K3E K3EDTA VACUETTE® tubes, and stored on ice. The tubes were then spun at 1,500 RPM for 15 min at 4° C. The plasma (top layer) was collected and stored at −20° C. The plasma was then diluted at 1:100 and used in a Mouse Anti-DNA IgG Antibody ELISA Kits (Chondrex Inc, Redmond, Wash.). The average concentration of duplicate samples was calculated against a standard curve and averaged for each mouse.
as §1, with “Blood samples were processed and the plasma was stored at −20° C. for measurement of anti-dsDNA antibodies.” left out

Test [4] deals with MRL-lpr mice. In words: Lymph node weights (inguinal and axillary) in MRL-lpr mouse model of SLE. Particulars: 6 weeks of treatment, A(1-7) 0.5 mg/kg, Compound 7 2 mg/kg s.c. daily, compared to saline treated MRL-lpr mice.
Text: Lymph node weights. At necropsy, inguinal and axillary lymph nodes were dissected and trimmed of any surrounding fatty tissues. They were then weighed using an Adventurer precision balance (Ohaus Corporation, Parsippany, N.J.).
as §1

The test system of test [5] is MRL-lpr mice. In words: Glomerulonephritis scores (H&E kidney sections) in MRL-lpr mouse model of SLE. The settings on record: once daily s.c. for 6 weeks, A(1-7) 0.5 mg/kg, Compound 7 2 mg/kg, compared to saline treated MRL-lpr mice. As for the experimental part:
Glomerulonephritis scores. Twenty glomeruli from kidney sections stained with H&E were scored for each mouse and a mean score was calculated. The glomerulonephritis score was based on a previously published score of 0-4 based on histopathological changes^6. The scores were defined as: 0, kidney without glomerular lesions; 1, minimal thickening of the mesangium; 2, noticeable increase in both mesangial and glomerular capillary cellularity; 3, preceding conditions, along with superimposed inflammatory exudates and capsular adhesions; 4, obliteration of the glomerular architecture included >70% of glomeruli.
as §1, with “Blood samples were processed and the plasma was stored at −20° C. for measurement of anti-dsDNA antibodies.” left out

“Also recorded” adds a separate entry of the source.

In the case of `CCCCOC(=O)NS(=O)(=O)c1ccc(OC(F)(F)F)cc1-c1ccc(Cn2ccnc2)cn1` [Compound 7], the “face rash score (inflammation and hair loss)” value in the test on MRL-lpr mice [1] was “significantly lower only at day 19 and 37”; in the test with MRL-lpr mice [1] (listed as compound 7), “significantly less overall pathologies”. Moreover, in the test on MRL-lpr mice [2], the “protein urine score (proteinuria) at final measurement” value was “significantly lower protein scores”. In addition, the “concentration of circulating anti-dsDNA IgG antibodies in plasma” value in the test with MRL-lpr mice [3] is “significantly lower levels of circulating IgG antibodies against dsDNA; also recorded: significantly lower concentrations”. In the test on MRL-lpr mice [4], the “inguinal and axillary lymph node weight (size) at necropsy” value was “reduced the size of both lymph nodes; also recorded: reduced the size but not significantly”. Besides, the “glomerulonephritis score (glomerular pathologies)” value with MRL-lpr mice [5] is listed as “significantly reduced the glomerular pathologies”.

For “Asp-Arg-Val-Tyr-Ile-His-Pro (DRVYIHP) [A(1-7), endogenous Mas receptor ligand angiotensin 1-7]”, in the test on MRL-lpr mice [1], the “face rash score (inflammation and hair loss)” value is on record as “significantly less overall pathologies; also recorded: significantly lower score than the saline treated MRL-lrp mice throughout the study”. In addition, the “protein urine score (proteinuria) at final measurement” value in the test with MRL-lpr mice [2] was “significantly lower protein scores”. Moreover, the “concentration of circulating anti-dsDNA IgG antibodies in plasma” value in the test with MRL-lpr mice [3] is recorded as “significantly lower levels of circulating IgG antibodies against dsDNA; also recorded: significantly lower concentrations”. In the test with MRL-lpr mice [4], the “inguinal and axillary lymph node weight (size) at necropsy” value is given as “reduced the size of both lymph nodes; also recorded: significantly smaller”. Also, in the test with MRL-lpr mice [5], the “glomerulonephritis score (glomerular pathologies)” value is reported as “significantly reduced the glomerular pathologies”.
